# Data from patent publication US20230142090A1 (priority 2020, published 2023).
# Entries after “also recorded” stand apart in the source; their conditions may differ. Where two headings read alike, the source gives them in different places.
# How the values were obtained:
# [1] = test system: cholera toxin genes ctxAB; type: cell-based, Vibrio cholerae C6706 EI Tor strain
# sopB expression = type: cell-based
# [2] = test system: HEp-2 cell invasion by Salmonella; type: cell-based
# HilC = biological target: T1, HilC (Salmonella typhimurium, UniProt P0CL09); type: binding
# T1 sequence (P0CL09 1-295): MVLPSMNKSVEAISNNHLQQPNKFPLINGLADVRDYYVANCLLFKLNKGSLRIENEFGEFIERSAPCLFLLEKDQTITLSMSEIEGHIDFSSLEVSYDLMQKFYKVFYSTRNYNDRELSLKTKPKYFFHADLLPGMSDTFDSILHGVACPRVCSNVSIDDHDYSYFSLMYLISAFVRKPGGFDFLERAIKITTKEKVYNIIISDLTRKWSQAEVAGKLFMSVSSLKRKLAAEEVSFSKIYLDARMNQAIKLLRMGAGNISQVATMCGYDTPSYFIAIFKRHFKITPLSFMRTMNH
# hilA expression = type: cell-based
# [3] = test system: Salmonella SPI1 expression (sicA-GFP); design: species or system C57BL/6 mice; conditions: mouse, in vivo
# RtsA = type: binding, Salmonella
# cholera toxin = type: cell-based, V. cholerae Haiti and N16961
# HilD [4] = biological target: HilD (Salmonella typhimurium, UniProt P0CL08); type: cell-based
# HilD [5] = biological target: T2, HilD (Salmonella typhimurium, UniProt P0CL08); type: binding
# T2 construct: 6×His-NusA (followed by HRV 3C protease site) (N, cleaved yes); made in house; host or cells: E. coli BL21(DE3)
# T2 sequence (P0CL08 1-309): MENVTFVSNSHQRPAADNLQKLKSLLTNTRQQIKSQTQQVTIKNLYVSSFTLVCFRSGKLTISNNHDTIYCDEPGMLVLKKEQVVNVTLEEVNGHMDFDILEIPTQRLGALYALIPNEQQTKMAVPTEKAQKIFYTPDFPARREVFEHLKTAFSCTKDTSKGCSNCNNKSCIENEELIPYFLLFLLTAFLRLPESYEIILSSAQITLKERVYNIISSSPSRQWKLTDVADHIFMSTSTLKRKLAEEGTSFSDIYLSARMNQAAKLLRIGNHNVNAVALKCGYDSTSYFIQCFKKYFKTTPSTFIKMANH
# Salmonella = type: cell-based
# [6] = test system: toxin co-regulated pili gene (tcpA); type: cell-based, Vibrio cholerae
# [7] = hilC and rtsA deleted, hilD under tetracycline-inducible promoter, 20 μM (FIG. 4C)
smiles,measurement,setting,value
"CCCCCCCCCCCCC/C=C\C(=O)O [c2-HDA, (Z)-hexadec-2-enoic acid]",concentrations at which effects on virulence gene expression were apparent,[1],≥ 5 µM
same,repression of ctxAB,[1],20 fold
same,repression of virulence gene expression compared to Virstatin,[1],repressed much more efficiently
same,inhibition of sopB expression in Δlon and ΔhilE mutants,sopB expression,inhibited sopB expression in these mutants to the level observed in the wild type strain
same,repression of sopB,sopB expression,11 fold
same,repression of sopB expression,sopB expression,68 fold
same,decrease of invasion of HEp-2 cells compared to untreated cultures,[2],78%
same,binding of HilC to the hilA promoter,HilC,preventing binding; also recorded: partially inhibited binding; also recorded: prevented binding; also recorded: did so partially
same,inhibition of hilA expression,hilA expression,39%
same,less potent in repressing hilA compared to the wild type,hilA expression,39%
same,reduction of hilA expression in the presence of only hilC,hilA expression,20 fold
same,reduction of hilA expression in the presence of only rtsA,hilA expression,13 fold
same,"reduction of hilA expression, chain length comparison",hilA expression,159 fold
same,repression of hilA expression in the absence of Lon,hilA expression,continued to repress hilA expression
same,repression of hilA in the presence of hilD only,hilA expression,78 fold
same,reduction of the percentage of bacteria expressing SPI1 in the caecum,[3],2 fold
same,binding of RtsA to the hilA promoter,RtsA,preventing binding; also recorded: partially inhibited binding; also recorded: prevented binding; also recorded: did so partially
same,cholera toxin secretion / toxin amounts in the culture media,cholera toxin,reduced; also recorded: reduces cholera toxin secretion
same,effect on HilD stability in the absence of Lon,HilD [4],no effect on its stability
same,binding of HilD to the hilA promoter,HilD [5],prevented the binding; also recorded: partially inhibited binding; also recorded: completely inhibited; also recorded: did so partially
same,effect on bacterial growth,Salmonella,did not impair bacterial growth
same,expression of tcpA,[6],represses expression
"CCCCCCC/C=C\C(=O)O [cis-2-decenoic acid, (Z)-dec-2-enoic acid]","reduction of hilA expression, chain length comparison",hilA expression; FIG. 1F,28%
"CCCCCCCCC/C=C\C(=O)O [cis-2-dodecenoic acid, (Z)-dodec-2-enoic acid]",potency in repressing invasion genes relative to c2-HDA,hilA expression,less potent in repressing invasion genes than c2-HDA
same,"reduction of hilA expression, chain length comparison",hilA expression; FIG. 1F,3 fold
CCCCCCCCCCCCCCCCC/C=C\C(=O)OC [cis-2-eicosenoic acid methyl ester],repression of hilA expression by methyl ester,hilA expression,not to significantly repress hilA expression
"CCCCCCCCCCCCCCCCC/C=C\C(=O)O [cis-2-eicosenoic acid, (Z)-icos-2-enoic acid]","reduction of hilA expression, chain length comparison",hilA expression; FIG. 1F,10 fold
same,repression of hilA in the presence of hilD only,hilA expression; [7],3 fold
CCCCCCCCCCCCC/C=C\C(=O)OC [cis-2-hexadecenoic acid methyl ester],repression of hilA expression by methyl ester,hilA expression,not to significantly repress hilA expression
CC(C)CCCCCCC/C=C\C(=O)O [cis-11-methyl-2-dodecenoic acid],potency in repressing invasion genes relative to c2-HDA,hilA expression,less potent in repressing invasion genes than c2-HDA
"CCCCCCCC/C=C\CCCCCCCC(=O)O [oleic acid, cis-9-octadecenoic acid, reference compound]",repression of ctxAB,[1],1.3 fold
same,decrease of invasion of HEp-2 cells compared to untreated cultures,[2]; overnight growth with 20 μM compound,70%
same,repression of hilA expression,"hilA expression; 5 μM, hilA::luxCDABE, wild type (FIG. 1A)",1.3 fold
same,repression of hilA in the presence of hilD only,hilA expression; [7],1.2 fold
"CCCCCCCCCCCCCCCC(=O)O [palmitic acid, reference compound]",repression of ctxAB,[1],no repressive effects
"CCCCCCCCCCCCC/C=C/C(=O)O [trans-2-hexadecenoic acid, reference compound]",fold less potent in repressing hilA than the cis-isomer,hilA expression; 20 μM fatty acids (FIG. 1A),31 fold
"O=C(O)CCCN1C(=O)c2cccc3cccc(c23)C1=O [virstatin, reference compound]",repression of ctxAB,[1],1.2 fold
